Entries after “also recorded” stand apart in the source; their conditions may differ. Read-outs that look alike come from different tables or passages of the source.
Experiments:
[1] = system: AMPK in C-26 colon adenocarcinoma cells; assay: Western blot of AMPK phosphorylation in C-26 cells; assay type: cell-based; settings: dose- and time-dependent, 10% FBS-containing medium
Method: (§1) Cells and cell culture. THP-1 monocytic cells were purchased from the American Type Culture Collection (Rockville, Md.), and maintained with L-glutamine-containing RPMI 1640 supplemented with 10% fetal bovine serum (FBS), 0.25% glucose, 0.01% sodium pyruvate, 50 μM 2-mercaptoethanol, and 0.1 ml/ml penicillin/streptomycin/L-glutamine. Differentiation of THP-1 monocytes into macrophages was carried out by exposure to PMA (50 nM) in the aforementioned RPMI 1640 medium for 24 h. Colon-26 (C-26) adenocarcinoma cells were provided by a researcher at The Ohio State University. The C-26 cells were maintained in RPMI 1640 medium supplemented with 5% FBS and 1% penicillin/streptomycin.
Western blotting. THP-1 cells were lysed in SDS-sample buffer after washing with iced-PBS buffer, and then heated at 95° C. for 20 minutes. Protein extracts were prepared using M-PER mammalian protein extraction reagent (Pierce, Rockford, Ill.), containing freshly added 1% phosphatase and protease inhibitor cocktails (Calbiochem). After centrifugation of lysates at 13000 g for 10 min, supernatants were collected, and the protein concentration in each sample was determined by protein assay (Bio-Rad). Protein extracts were then suspended in 2×SDS sample buffer, separated by electrophoresis in 10% SDS-polyacrylamide gels, and transferred to nitrocellulose membranes using a semidry transfer cell. […]

[2] = system: LPS-stimulated IL-6 production in THP-1 macrophages; assay: ELISA of LPS-stimulated IL-6 production in THP-1 macrophages; assay type: cell-based, human; settings: for first-tier screening result (AMPK/mTOR activation status and IL-6/IL-6 receptor signaling): LPS-stimulated THP-1 macrophages; for inhibition at 10 µM: read-out: inhibition of IL-6 production
Method: as §1
ELISA. IL-6 release by differentiated THP-1 macrophages in response to 10 ng/ml of LPS was analyzed by using the IL-6 ELISA kit (Cayman Chemical Co.; Ann Arbor, Mich.) according to the manufacturer's instruction in triplicate. The effect of each test compound on LPS-stimulated IL-6 release is presented as percent inhibition and was calculated using the following formula: percentage inhibition=100%×{1−[(O.D. of sample−O.D. of control)/(O.D. of LPS−O.D. of control)]}.

AMPK = assay: Western blot of AMPK phosphorylation in LPS-treated THP-1 macrophages; assay type: cell-based, human
Method: Western blotting. THP-1 cells were lysed in SDS-sample buffer after washing with iced-PBS buffer, and then heated at 95° C. for 20 minutes. Protein extracts were prepared using M-PER mammalian protein extraction reagent (Pierce, Rockford, Ill.), containing freshly added 1% phosphatase and protease inhibitor cocktails (Calbiochem). After centrifugation of lysates at 13000 g for 10 min, supernatants were collected, and the protein concentration in each sample was determined by protein assay (Bio-Rad). Protein extracts were then suspended in 2×SDS sample buffer, separated by electrophoresis in 10% SDS-polyacrylamide gels, and transferred to nitrocellulose membranes using a semidry transfer cell. The transblotted membrane was washed twice with Tris-buffered saline containing 0.1% Tween-20 (TBST). After blocking with TBST containing 5% nonfat milk for 1 h, the membrane was incubated with primary antibodies: p172Thr-AMPK, AMPK, p705Tyr-STAT3 and STAT3 (Cell Signaling Technology; Beverly, Mass.); p389Thr-p70S6K and p70S6K (Santa Cruz Biotechnology; Santa Cruz, Calif.), each at 1:1,000 dilution in 1% TBST-nonfat milk at 4° C. overnight. After incubation with the primary antibody, the membrane was washed three times with TBST for a total of 30 min, followed by incubation with horseradish peroxidase-conjugated goat anti-mouse IgG (diluted 1:2500) for 1 h at room temperature. […]

[3] = system: Sirt1 gene expression in LNCaP cells; assay: Time course of Sirt1 expression in LNCaP cells (Western blot/RT-PCR); assay type: cell-based; settings: OSU-CG12 10 μM, 2-DG 10 mM
Method: Total RNA was isolated from drug-treated LNCaP cells using the RNeasy mini kit (Qiagen, Valencia, Calif.), and then reverse-transcribed to cDNA using the Omniscript RT Kit (Qiagen) according to manufacturer's instructions. PCR products were separated electrophoretically in 1% agarose gels and visualized by ethidium bromide staining.
(§2) Transfections were performed by electroporation using Nucleofector kit R of the Amaxa Nucleofector system (Amaxa Biosystems, Cologne, Germany). LNCaP cells were transfected with the following plasmids or siRNA: WT- and H363Y-Flag-Sirt1 (DN-Sirt1), WT- and K45R-Myc-AMPK (DN-AMPK), GFP-LC3, TSC2 shRNA, and DDIT3 siRNA (GADD153). […] For the fluorescent microscopic analysis, LNCaP cells transfected with the GFP-LC3 expression plasmid or with scrambled or TSC2 shRNA were treated as indicated for 36 h. After cells were fixed with 3.7% formaldehyde at room temperature for 20 min, nuclear counterstaining was performed using a 4,6-diamidino-2-phenylindole (DAPI)-containing mounting medium (Vector Laborotaries, Burlingame, Calif.) before examination. Images were observed using a Nikon microscope (Eclipse TE300).

tumor xenograft = assay: Tumor xenograft growth and acute toxicity; settings: in vivo
[4] = system: β-TrCP, Sp1, and androgen receptor (AR) expression in PrECs; assay: Western blot of β-TrCP, Sp1 and AR in PrECs; assay type: cell-based; settings: escalating concentrations, 48 h
[5] = system: conversion of LC3-I to LC3-II in LNCaP cells; assay: GFP-LC3 conversion (autophagy) in LNCaP cells; assay type: cell-based; settings: 5 μM, GFP-LC3-transfected LNCaP cells
Method: as §2

[6] = system: human tumor cell lines of the cancer screening panel; assay: NCI60 cell line screening; assay type: cell-based; settings: 48 h, SRB; variety of cancer cell types
Method: The NCI60 screening method was carried out using the following methodology. The human tumor cell lines of the cancer screening panel were grown in RPMI 1640 medium containing 5% fetal bovine serum and 2 mM L-glutamine. The cells were then inoculated into 96 well microtiter plates in 100 μL at plating densities ranging from 5,000 to 40,000 cells/well depending on the doubling time of individual cell lines. After cell inoculation, the microtiter plates are incubated at 37° C., 5% CO2, 95% air and 100% relative humidity for 24 h prior to addition of the thiazolidinedione derivatives. […]
Following drug addition, the plates were incubated for an additional 48 h at 37° C., 5% CO2, 95% air, and 100% relative humidity. […] Bound stain is subsequently solubilized with 10 mM trizma base, and the absorbance was read on an automated plate reader at a wavelength of 515 nm. […] Using the seven absorbance measurements [time zero, (Tz), control growth, (C), and test growth in the presence of drug at the five concentration levels (Ti)], the percentage growth is calculated at each of the drug concentrations levels. Percentage growth inhibition is calculated as: [(Ti−Tz)/(C−Tz)]×100 for concentrations for which Ti>/=Tz [(Ti−Tz)/Tz]×100 for concentrations for which Ti<Tz.
Three dose response parameters were calculated for each experimental agent. […]

[7] = system: [3H]-2-DG uptake into LNCaP cells; assay: Glucose uptake assay ([3H]-2-DG); assay type: cell-based; settings: OSU-CG12 at 5 and 10 μM, resveratrol at 50 and 100 μM, P<0.05
Method: After washing cells with PBS, glucose uptake was initiated by addition of 1 mL of PBS containing 1 μCi/mL [^3H]-2-DG (Perkin Elmer, Waltham, Mass.) and […] nonradioactive 2-DG. After 5 min, glucose uptake was terminated by extensive washing with PBS, and cells were solubilized in 0.1% SDS buffer. Aliquots were taken for measurements of radioactivity using a scintillation counter LS6500 (Beckman).

[8] = system: MCF-7 breast cancer cells; assay: MTT cell viability assay, MCF-7 cells; assay type: cell-based; settings: Homo sapiens, MCF7, 72 h, 10% FBS-supplemented medium, read-out: IC50 in inhibiting the viability of MCF-7 breast cancer cells
Method: (§3) Cell viability was determined using the 3-(4,5-dimethylthiazol-2-yl)-2,5-diphenyltetrazolium bromide) (MTT) assay. LNCaP and MCF-7 cells were seeded in 96-well plates (5000 cells/well) and incubated in their respective culture media supplemented with 10% FBS for 24 h. […] Drug-containing medium was then replaced with 1×MTT (0.5 mg/mL in RPMI 1640), followed by incubation at 37° C. for 2 h. After removal of medium, the reduced MTT dye was solubilized in 200 μL/well DMSO, and absorbances were measured at 570 nm.

[9] = system: LNCaP prostate cancer cells; assay: MTT cell viability assay, LNCaP cells; assay type: cell-based; settings: Homo sapiens
Method: The compounds were tested for their ability to decrease LNCaP prostate cancer cell viability as measured by the 3-(4,5-dimethylthiazol-2-yl)-2,5-diphenyltetrazolium bromide) (MTT) assay.
as §3

THP-1 cells = assay: MTT viability of THP-1 cells; assay type: cell-based, human; settings: at the concentrations used for IL-6 ELISA (dose range b224, 10 μM b226, 1 μM b229)

CC1(CN2C(=O)S/C(=C\c3ccc(NS(=O)(=O)c4ccc([N+](=O)[O-])c(C(F)(F)F)c4)cc3)C2=O)CCCCC1 [Compound 53, N-{4-[3-(1-Methyl-cyclohexylmethyl)-2,4-dioxo-thiazolidin-5-ylidene-methyl]-phenyl}-4-nitro-3-trifluoromethyl-benzenesulfonamide]
p-AMPK level in C-26 colon adenocarcinoma cells [1]: robust increases in the p-AMPK level | potency in blocking IL-6 release ([2]; 1 μM, 6 h, LPS-stimulated THP-1): optimal agent; also recorded: highest potency | first-tier screening result (AMPK/mTOR activation status and IL-6/IL-6 receptor signaling) ([2]; 10 μM): active | IC50 ([2]; Homo sapiens, THP-1, 6 h, 10% FBS-containing medium, read-out: IC50 for inhibition of LPS-stimulated IL-6 production): ~1 µM | inhibition at 10 µM ([2]; Homo sapiens, 10 μM, 6 h, LPS-stimulated THP-1): > 80% | potency in activating AMPK relative to AICAR (AMPK; LPS-treated THP-1, 6 h, AICAR 0.5 mM): two-orders-of-magnitude higher

CC1(CN2C(=O)S/C(=C\c3ccc(O)c(C(F)(F)F)c3)C2=O)CCCCC1 [OSU-CG12, (Z)-5-(4-Hydroxy-3-trifluoromethyl-benzylidene)-3-(1-methyl-cyclohexylmethy)-thiazolidine-2-4-dione]
duration of transient transcriptional activation of Sirt1 gene expression [3]: 1 h | acute toxicity (tumor xenograft): without incurring acute toxicity | suppression of tumor xenograft growth (tumor xenograft): effectiveness in suppressing tumor xenograft growth | expression levels of β-TrCP, Sp1, and AR in PrECs [4]: unaltered expression levels | accumulation of LC3-II (autophagy marker) [5]: time-dependent accumulation of LC3-II | first-tier screening result (AMPK/mTOR activation status and IL-6/IL-6 receptor signaling) ([2]; 10 μM): active | inhibition at 10 µM ([2]; Homo sapiens, THP-1, 6 h): > 80% | antitumor potency in NCI 60 cell line screening [6]: significantly antitumor potency | inhibition of glucose uptake [7]: significantly inhibit glucose uptake | IC50 [8]: 5 µM | IC50 ([9]; LNCaP, MTT, 72 h, 10% FBS-supplemented medium, read-out: IC50 in inhibiting the viability of LNCaP prostate cancer cells): 5.7 µM | IC50 ([9]; summary over LNCaP and MCF-7 cells, read-out: IC50 in suppressing cancer cell growth): 5 µM

CC1(COc2ccc(C=C3SC(=O)NC3=O)cc2)CCCCC1 [compound 62]
effect on LPS-stimulated IL-6 production ([2]; 10 μM, 6 h, LPS-stimulated THP-1): modest activities | AMPK activation (p-AMPK level) (AMPK; 10 μM, 6 h, LPS-treated THP-1): effective in elevating the level of p-AMPK; also recorded: modest activities | effect on viability of THP-1 cells (THP-1 cells): neither agent inhibited the viability of THP-1 cells
